The results in this text go back to patent publication US8906852B2 (MethylGene Inc., priority 2010, dated 2014).

The target in this experiment is T1, VEGFR/KDR (Homo sapiens, UniProt P35968).
T1 construct: made in house; host or cells: Sf9 cells (Spodoptera frugiperda), baculovirus
T1 sequence (P35968 806-1356): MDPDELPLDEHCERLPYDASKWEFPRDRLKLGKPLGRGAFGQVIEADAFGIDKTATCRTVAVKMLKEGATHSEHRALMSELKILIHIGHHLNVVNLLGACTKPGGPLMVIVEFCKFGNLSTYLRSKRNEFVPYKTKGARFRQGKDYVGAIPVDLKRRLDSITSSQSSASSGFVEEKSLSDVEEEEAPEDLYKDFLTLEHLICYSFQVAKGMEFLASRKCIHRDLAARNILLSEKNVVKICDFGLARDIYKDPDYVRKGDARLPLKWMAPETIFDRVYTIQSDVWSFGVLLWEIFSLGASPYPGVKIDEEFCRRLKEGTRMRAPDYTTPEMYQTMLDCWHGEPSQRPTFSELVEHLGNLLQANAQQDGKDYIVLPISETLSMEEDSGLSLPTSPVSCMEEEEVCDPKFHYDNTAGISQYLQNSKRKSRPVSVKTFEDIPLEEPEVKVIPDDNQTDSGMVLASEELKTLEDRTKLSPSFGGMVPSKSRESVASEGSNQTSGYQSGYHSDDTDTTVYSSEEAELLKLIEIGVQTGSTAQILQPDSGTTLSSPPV
Description: VEGFR/KDR kinase inhibition, DELFIA assay. It counts as biochemical. The note with it: ATP 0.6 uM (2x Km), enzyme 5 nM. The protocol:
Inhibition of VEGFR/KDR is measured in a DELFIA™ assay (Perkin Elmer). The substrate poly(Glu4, Tyr) is immobilized onto black high-binding polystyrene 96-well plates. The coated plates are washed and stored at 4° C. During the assay, the enzyme is pre-incubated with inhibitor and Mg-ATP on ice in polypropylene 96-well plates for 4 minutes, and then transferred to the coated plates. The subsequent kinase reaction takes place at 30° C. for 10-30 minutes. ATP concentrations in the assay are 0.6 uM for VEGFR/KDR (2× the Km). Enzyme concentration is 5 nM. After incubation, the kinase reactions are quenched with EDTA and the plates are washed. Phosphorylated product is detected by incubation with Europium-labeled anti-phosphotyrosine MoAb. After washing the plates, bound MoAb is detected by time-resolved fluorescence in a Gemini SpectraMax reader (Molecular Devices). Compounds are evaluated over a range of concentrations, and IC50 values (concentration of compounds giving 50% inhibition of enzymatic activity) are determined.
Compound `CN(C)C(=O)c1cc2nccc(Oc3ccc(NC(=O)NC4CC4)cc3F)c2s1` [Compound 442] gave an IC50 of less than 50 nM.

The compound `CC(C)[C@H](N)C(=O)N1CCN(Cc2ccc(-c3cc4nccc(Oc5ccc(NC(=O)NC6CC6)cc5F)c4s3)nc2)CC1` [Compound 76, (S)-1-(4-(2-(5-((4-(2-amino-3-methylbutanoyl)piperazin-1-yl)methyl)pyridin-2-yl)thieno[3,2-b]pyridin-7-yloxy)-3-fluorophenyl)-3-cyclopropylurea] registered an IC50 of less than 50 nM.

In turn, `CS(=O)(=O)c1cccc(NC(=O)Nc2ccc(Oc3ccnc4cc(-c5ccc(CN6CCCC6=O)cn5)sc34)c(F)c2)c1` [Compound 105] yielded an IC50 of less than 50 nM. Consider `O=C(Nc1ccc(Oc2ccnc3cc(-c4cn(CC(=O)N5CCCC5)nn4)sc23)c(F)c1)NC1CC1` [Compound 373], for which the IC50 is less than 50 nM.

Regarding `CCOC(=O)C1CCCN(C(=O)c2cc3nccc(Oc4ccc(NC(=O)NC5CC5)cc4F)c3s2)C1` (centres unmarked) [Compound 458], the IC50 was 50 to 100 nM. Next, `CC1(C)CN(Cc2ccc(-c3cc4nccc(Oc5ccc(NC(=O)NC6CC6)cc5F)c4s3)nc2)CCN1` [Compound 496, 1-cyclopropyl-3-(4-(2-(5-((3,3-dimethylpiperazin-1-yl)methyl)pyridin-2-yl)thieno[3,2-b]pyridin-7-yloxy)-3-fluorophenyl)urea]: less than 50 nM; `CC(=O)O[C@@H]1CCN(C(=O)c2cc3nccc(Oc4ccc(NC(=O)NC5CC5)cc4F)c3s2)C1` [Compound 467, (R)-1-(7-(4-(3-cyclopropylureido)-2-fluorophenoxy)thieno[3,2-b]pyridine-2-carbonyl)pyrrolidin-3-yl acetate]: less than 50 nM; `O=C(Nc1ccc(Oc2ccnc3cc(-c4cn(CC(=O)N5CCCCC5)nn4)sc23)c(F)c1)NC1CC1` [Compound 372, 1-cyclopropyl-3-(3-fluoro-4-(2-(1-(2-oxo-2-(piperidin-1-yl)ethyl)-1H-1,2,3-triazol-4-yl)thieno[3,2-b]pyridin-7-yloxy)phenyl)urea]: less than 50 nM. Next, `O=C(Nc1ccc(Oc2ccnc3cc(-c4ccc(CN5CCN(CCF)CC5)cn4)sc23)c(F)c1)NC1CC1` [Compound 420, 1-Cyclopropyl-3-(3-fluoro-4-(2-(5-((4-(2-fluoroethyl)piperazin-1-yl)methyl)pyridin-2-yl)thieno[3,2-b]pyridin-7-yloxy)phenyl)urea]: less than 50 nM. Turning to `CCNC(=O)N(C)C1CCN(Cc2ccc(-c3cc4nccc(Oc5ccc(NC(=O)NC6CC6)cc5F)c4s3)nc2)CC1` [Compound 407], the IC50 was less than 50 nM. Next, `O=C(Nc1ccc(Oc2ccnc3cc(-c4ccc(CN5CCCC5=O)cn4)sc23)c(F)c1F)NC1CC1` [Compound 169, 1-cyclopropyl-3-(2,3-difluoro-4-(2-(5-((2-oxopyrrolidin-1-yl)methyl)pyridin-2-yl)thieno[3,2-b]pyridin-7-yloxy)phenyl)urea]: less than 50 nM. To `CC1=C(/C=C/C(C)=C/C=C/C(C)=C/C(=O)N2CCN(Cc3ccc(-c4cc5nccc(Oc6ccc(NC(=O)NC7CC7)cc6F)c5s4)nc3)CC2)C(C)(C)CCC1` [Compound 548, 1-cyclopropyl-3-(4-(2-(5-((4-((2E,4E,6E,8E)-3,7-dimethyl-9-(2,6,6-trimethylcyclohex-1-enyl)nona-2,4,6,8-tetraenoyl)piperazin-1-yl)methyl)pyridin-2-yl)thieno[3,2-b]pyridin-7-yloxy)-3-fluorophenyl)urea] belongs no less than 250 nM; to “N-(4-(7-(4-(3-cyclopropylureido)-2-fluorophenoxy)thieno[3,2-b]pyridin-2-yl)benzyl)-2-(2-methoxyethoxy)-N-(2-methoxyethyl)acetamide [Compound 115]”, less than 50 nM. As for `COCCN(Cc1ccc(-c2cc3nccc(Oc4ccc(NC(=O)NC5CC5)cc4F)c3s2)cc1)C(=O)CO` [Compound 115-A, N-(4-(7-(4-(3-cyclopropylureido)-2-fluorophenoxy)thieno[3,2-b]pyridin-2-yl)benzyl)-2-hydroxy-N-(2-methoxyethyl)acetamide], the IC50 was less than 50 nM.
